According to ChEMBL document CHEMBL4400538, “Discovery of Carboline Derivatives as Potent Antifungal Agents for the Treatment of Cryptococcal Meningitis” (J Med Chem, 2019):
Converted amounts (≈) assume the structure as drawn.

Experiments:
[1] = tested on: Cryptococcus neoformans; experiment: Antifungal activity against Cryptococcus neoformans H99 after 48 hrs by growth curve assay; type: functional; conditions: var grubii H99 
[2] = Half life in ICR mouse liver microsomes at 1 uM measured up to 45 mins in presence of NADPH by LC-MS/MS analysis; type: ADME, Microsome

| SMILES | MIC80 [1] [µg/mL] | half-life at 1 µM [2] [min] |
| --- | --- | --- |
| Clc1cccc(NCCCn2c3c(c4ccccc42)CCNC3)c1.O=C(O)C(F)(F)F | 8 |  |
| Cc1ncc2n1-c1ccc(Cl)cc1C(c1ccccc1F)=NC2 [MIDAZOLAM] |  | 2 |
| Clc1ccc(OCCCn2c3c(c4ccccc42)CCNC3)cc1.O=C(O)C(F)(F)F | 4 |  |
| CCOc1cccc(NCCCn2c3c(c4ccccc42)CCNC3)c1.O=C(O)C(F)(F)F | 64 |  |
| Fc1ccc2c3c(n(CCCOc4ccc(Cl)cc4)c2c1)CNCC3.O=C(O)C(F)(F)F | 2 |  |
| Fc1ccc(NCCCn2c3c(c4ccccc42)CCNC3)cc1.O=C(O)C(F)(F)F | 16 |  |
| c1ccc(C2CCN(CCCn3c4c(c5ccccc53)CCNC4)CC2)cc1 | 32 (≈ 85.7 µM) |  |
| Brc1ccccc1OCCCn1c2c(c3ccccc31)CCNC2.O=C(O)C(F)(F)F | 8 |  |
| COc1ccc2c3c(n(CCCOc4ccc(Cl)cc4)c2c1)CNCC3.O=C(O)C(F)(F)F | 2 |  |
| Cc1ccc(OCCCn2c3c(c4ccccc42)CCNC3)cc1.O=C(O)C(F)(F)F | 8 |  |
| CCN(CC)CCCn1c2c(c3ccccc31)CCNC2 | 64 (≈ 224 µM) |  |
| O=C1c2ccccc2C(=O)N1CCCn1c2c(c3ccccc31)CCNC2 | 64 (≈ 178 µM) |  |
| Fc1cccc(NCCCn2c3c(c4ccccc42)CCNC3)c1.O=C(O)C(F)(F)F | 16 |  |
| Clc1ccccc1OCCCn1c2c(c3ccccc31)CCNC2.O=C(O)C(F)(F)F | 4 |  |
| Fc1ccc(OCCCn2c3c(c4ccccc42)CCNC3)cc1.O=C(O)C(F)(F)F | 8 |  |
| c1ccc2c(c1)c1c(n2CCCN2CCCC2)CNCC1 | 64 (≈ 226 µM) |  |
| O=C(O)C(F)(F)F.O=[N+]([O-])c1ccc(OCCCn2c3c(c4ccccc42)CCNC3)cc1 | 16 |  |
| C1=CCN(CCCn2c3c(c4ccccc42)CCNC3)C1 | 64 (≈ 227 µM) |  |
| Brc1cccc(NCCCn2c3c(c4ccccc42)CCNC3)c1.O=C(O)C(F)(F)F | 8 |  |
| Clc1ccc(OCCCn2c3c(c4cccc(Cl)c42)CCNC3)cc1.O=C(O)C(F)(F)F | 2 |  |
| Clc1ccc(OCCCn2c3c(c4c(Br)cccc42)CCNC3)cc1.O=C(O)C(F)(F)F | 8 |  |
| Fc1ccccc1OCCCn1c2c(c3ccccc31)CCNC2.O=C(O)C(F)(F)F | 16 |  |
| Brc1ccccc1NCCCn1c2c(c3ccccc31)CCNC2.O=C(O)C(F)(F)F | 8 |  |
| Clc1ccc(OCCCn2c3c(c4cccc(Br)c42)CCNC3)cc1.O=C(O)C(F)(F)F | 4 |  |
| COc1ccc(NCCCn2c3c(c4ccccc42)CCNC3)cc1.O=C(O)C(F)(F)F | 32 |  |
| Fc1ccccc1NCCCn1c2c(c3ccccc31)CCNC2.O=C(O)C(F)(F)F | 16 |  |
| COc1ccc(N2CCN(CCCn3c4c(c5ccccc53)CCNC4)CC2)cc1 | 64 (≈ 158 µM) |  |
| Brc1ccc(NCCCn2c3c(c4ccccc42)CCNC3)cc1.O=C(O)C(F)(F)F | 8 |  |
| Clc1cccc(OCCCn2c3c(c4ccccc42)CCNC3)c1.O=C(O)C(F)(F)F | 4 |  |
| COc1ccccc1NCCCn1c2c(c3ccccc31)CCNC2.O=C(O)C(F)(F)F | 32 |  |
